Assay results: publication PMC6482291, “Anticonvulsant Activity of Pterostilbene in Zebrafish and Mouse Acute Seizure Tests” (Neurochemical Research, 2019)
Like-named read-outs stand apart in the source and are kept apart here.

Key:
[1] = test system: maximal electroshock seizures; assay: MES test (supramaximal stimulation); assay type: in vivo; conditions: ED50 could not be determined
zebrafish larvae = assay: Toxicological assessment (maximum tolerated concentration) in zebrafish larvae; assay type: in vivo, Danio rerio; conditions: 4 dpf larvae, scored after 2 and 18 h of exposure; highest concentration without death or signs of toxicity
Protocol: Maximum tolerated concentration (MTC) was evaluated prior to further experiments. Briefly, 4 dpf zebrafish larvae (n = 12/group) were incubated with a range of PTE doses at 28.5 °C, for 18 h. The following parameters were scored after 2 and 18 h of exposure: touch response, posture, edema, morphology, signs of necrosis, swim bladder and heartbeat.

[2] = test system: PTZ-induced seizure-like behavior in zebrafish larvae; assay: Larval zebrafish PTZ seizure assay, locomotor activity tracking; assay type: in vivo, Danio rerio; conditions: 10 µM PTE, 2 h incubation, 20 mM PTZ; vs vehicle + PTZ
Protocol: The locomotor activity of larvae was assessed as previously described. A single 117 hpf zebrafish larvae was placed in a 48-well plate (one larva per well) filled with 200 µl of vehicle or PTE solution (10 µM). Subsequently, larvae were incubated for 2 h, at 28.5 °C. Next, 100 µl of vehicle or PTZ was added to each well. Within 5 min, plates were positioned in an automated tracking device (ZebraBox, Viewpoint, Lyon, France) and larvae were tracked for 30 min, with a 5 min integration interval. All measurements were performed at the same daytime period. The […] distance (in millimeters) covered by each larva was recorded. Three independent experiments were done (n = 12/group) and the data were pooled together. […] The data were normalized against PTZ values.

[3] = parameters: method as in PMID 25047917; conditions: after oral administration; cited from earlier work
[4] = test system: PTZ-induced seizures in mice; assay: Timed iv PTZ seizure threshold test in mice; assay type: in vivo; conditions: for threshold for the first myoclonic twitch vs negative control: p < 0.001
Protocol: Each mice was placed in the cylindrical restrainer and the needle (27G, 3/4 in., Sterican®, B. Braun Melsungen AG, Melsungen, Germany) was injected into the lateral tail vein. The needle was attached by the polyethylene drain (PE20RW, Plastic One Inc. Roanoke, VA, USA) with the syringe containing 1% solution of PTZ (Sigma–Aldrich, St. Louis, MO, USA) in water and the syringe was located in the infuse pomp (model Physio 22, Hugo Sachs Elektronik–Harvard Apparatus GmbH, March-Hugstetten, Germany). The correct placement of the needle in the vein was confirmed based on the presence of the blood in the drain and the needle was protected against displacement by a peace of adhesive tape. Following injection, mice were took out from the restrainer and placed in the Plexiglas box for observation. The PTZ solution was infused into the vein at a constant rate of 0.2 ml/min. The time intervals from the start of infusion of PTZ solution to the beginning of three kinds of seizures, i.e., the first myoclonic twitch, generalized clonus with loss of the righting reflex and forelimb tonic extension, were noted. Infusion of PTZ solution was stopped immediately after onset of the tonic seizures, which usually were lethal. If animal survived the test, it was euthanized immediately. The threshold dose of PTZ (in mg/kg body weight) for each kind of seizures was calculated according to the following formula: PTZmg/kg=infusion durations×infusion rateml/s×PTZ concentrationmg/ml/weightkg
Experimental groups consisted of 9–13 animals. The data obtained in the iv PTZ test are presented as the threshold dose of PTZ (in mg/kg) + standard error of the mean (SEM) needed to elicit the respective kind of seizures. The data were analyzed by one-way ANOVA followed by the Tukey’s multiple comparison test. Statistical significance was noted when p values were equal or lower than 0.05.

[5] = Determination of PTE in mouse serum and brain tissue and pharmacokinetic analysis; assay type: in vivo; conditions: mice, 50 mg/kg ip; for Kp: brain/serum, ip, 50 mg/kg; for concentration at 15 min / concentration at 30 min / concentration at 60 min / concentration at 120 min / concentration at 240 min: mean ± SEM; for MRT: read-out: MRT (mean residence time); for half-life: read-out: t0.5 λz (terminal half-life) (converted); for Tmax: read-out: time of peak concentration following dosing (converted); for k el: read-out: λz (terminal elimination rate constant) (converted)
Protocol: In order to isolate PTE from biological samples, brains were homogenized in distilled water (1:4, w/v) with a tissue homogenizer TH220 (Omni International, Inc., Warrenton, VA, USA). Aliquots of 0.2–0.3 ml of serum or 0.5–1 ml of brain homogenate were spiked with 10 µl of internal standard (IS) solution containing clonazepam at concentration of 10 µg/ml and vortexed (Reax top, Heidolph, Germany) for 10 s. Both serum samples and brain homogenates were extracted with 3 ml of a mixture of ethyl acetate:hexane (30:70, v/v) for 20 min on a shaker (VXR Vibrax, IKA, Germany). After centrifugation (Universal 32, Hettich, Germany) at 3000 rpm for 15 min, the organic layers ware transferred to new tubes and evaporated to dryness at 37 °C under a gentle stream of nitrogen. The residues were dissolved in 100 µl of methanol and aliquots of 10–50 µl of the solution were injected into the HPLC system. The analysis was performed on a 250 × 4.6 mm LiChrospher®100 RP-18 column with a particle size of 5 µm (Merck, Darmstadt, Germany) protected with a guard column (4 × 4 mm) with the same packing material. The mobile phase was composed of deionized water and acetonitrile mixed at a ratio of 50:50 (v/v) and pumped at a flow rate of 1 ml/min. The column temperature was maintained at 21 °C. The HPLC system (Merck-Hitachi, Darmstadt, Germany) consisted of an L-7100 isocratic pump, an L-7200 autosampler, and a UV variable-wavelength K-2600 detector (Knauer, Berlin, Germany) operating at 321 nm. D-7000 HSM software was used for data acquisition and processing. In these conditions, the retention times of IS and PTE were approximately 5.3 and 12.8 min. The calibration curve constructed by plotting the ratio of the peak area of PTE to IS vs PTE concentrations was linear in the tested concentration ranges. The limit of quantification of the analytical method was 5 ng/ml (or ng/g tissue). […] The extraction efficiencies of PTE and IS were higher than 90%.
Serum and total brain concentrations of PTE were determined in groups consisted of 8 animals. Pharmacokinetic parameters were calculated using non-compartmental analysis in Phoenix WinNonlin v. 7.0 (Pharsight Corporation, a Certara Company, Princeton, NJ, USA).

[6] = mouse, brain, read-out: Concentration of PTE in brain tissue
[7] = mouse, serum, read-out: Concentration of PTE in serum

In the case of COc1cc(/C=C/c2ccc(O)cc2)cc(OC)c1 [PTE, trans-3,5-dimethoxy-4′-hydroxy-trans-stilbene], the “anticonvulsant activity in the MES test” value [1] is reported as “lack of significant anticonvulsant activity”, the “Maximum tolerated concentration (MTC)” value (zebrafish larvae) is reported as 10 µM and the “PTZ-induced locomotor activity in zebrafish larvae” value [2] is reported as “significantly reduced”. For the same compound, the “brain concentration of PTE relative to pterostilbene-4’sulphate (main metabolite)” value [3] was “nearly fivefold higher”, the “time of peak in brain tissue” value [3] was 2 h and the “threshold for the first myoclonic twitch vs negative control” value ([4]; PTE 100 mg/kg ip, 30 min before test) was “Statistically significant increases”. For the same compound, the “threshold for the first myoclonic twitch vs negative control” value ([4]; PTE 200 mg/kg ip, 30 min before test) was “Statistically significant increases”, the “increase of threshold for generalized clonic seizures vs negative control” value ([4]; PTE 200 mg/kg ip, 30 min before test, p < 0.01) was “over 45%” and the “threshold for tonic forelimb extension vs negative control” value ([4]; PTE 50 to 200 mg/kg ip, 30 min before test) was “did not significantly affect”. For the same compound, the “time of highest anticonvulsant activity after ip administration (time-course effect)” value ([4]; iv PTZ test, data not shown) was 30 min, the “AUC0–24” value ([5]; brain) was 11.64 µg·h/g and the Kp ([5]; mouse, read-out: brain-to-serum AUC ratio) was 5.15. The Kp ([5]; mouse, read-out: brain-to-serum Cmax ratio) was 6, the concentration at 15 min [5, 6] was 13100 ± 1820 ng/g and the concentration at 30 min [5, 6] was 9920 ± 1100 ng/g. It also gave a concentration at 60 min [5, 6] of 3500 ± 440 ng/g, a concentration at 120 min [5, 6] of 820 ± 140 ng/g and a concentration at 240 min [5, 6] of 180 ± 60 ng/g. The concentration at 15 min [5, 7] was 1760 ± 230 ng/mL, the concentration at 30 min [5, 7] was 1080 ± 160 ng/mL and the concentration at 60 min [5, 7] was 550 ± 70 ng/mL. It also gave a concentration at 120 min [5, 7] of 210 ± 30 ng/mL, a concentration at 240 min [5, 7] of 100 ± 60 ng/mL and a Cmax ([5]; mouse, brain) of 13100 ng/g. For the same compound, the MRT ([5]; mouse, brain) was 1.09 h, the half-life ([5]; mouse, brain) was 1.82 h and the Tmax ([5]; mouse, brain) was 0.25 h. The k el ([5]; mouse, brain) was 0.000106 s⁻¹, the Cmax ([5]; mouse, serum) was 2190 ng/mL and the AUC(0-t) ([5]; mouse, serum, read-out: AUC0–24) was 2260 ng·h/mL. For the same compound, the MRT ([5]; mouse, serum) was 2.62 h, the half-life ([5]; mouse, serum) was 2.64 h and the Tmax ([5]; mouse, serum) was 0.25 h. The k el ([5]; mouse, serum) was 7.22e-05 s⁻¹.
